Publication PMC10812557, “Progressive Design of a Ranatuerin-2 Peptide from Amolops wuyiensis: Enhancement of Bioactivity and In Vivo Efficacy” (Antibiotics, 2023)
Where “and” joins values, the source holds several entries; their conditions need not be identical. Equal entries are not always repeated. Where two headings read alike, the source gives them in different places. Peptide text beside a SMILES is read from it.

Experiments:
E. faecium (NTCC 12697) [1] = test: microbe, parasite or virus in culture; type: cell-based
From the text: (§1) The MIC and MBC assays were used to assess the inhibitory activities of all 5 analogues of R2AW on the growth of planktonic microorganisms. The MIC is the lowest concentration that prevents the viable growth of bacteria. The MBC is the lowest concentration that results in bacterial death. Six microorganisms were used to detect the antimicrobial activity of peptides, including Gram-positive bacteria S. aureus (NCTC 10788), MRSA (NCTC 12493), Enterococcus faecalis (E. faecalis) (NCTC 12697), Gram-negative bacteria E. coli […], Klebsiella pneumoniae (K. pneumoniae) (ATCC 43816), and Pseudomonas aeruginosa (P. aeruginosa) (ATCC 9027). According to the assay described previously, the microorganisms were inoculated at 37 °C overnight and diluted to 5 × 10^5 CFU/mL after reaching the logarithmic growth period. The peptide stock solution at the concentration of 512 × 10^2 μM was prepared and diluted to 100 μM by a 2-fold dilution. One μL of each concentration of peptide solution was incubated with 99 μL of bacterial subculture in the 96-well plate for 18 h at 37 °C. The absorbance was determined at a wavelength of 550 nm using a Synergy HT plate reader (Bio Tek, Washington, DC, USA). […] As for those wells that were clearly visible, 20 μL of the solution was dropped onto the Mueller Hinton agar (MHA) dish and then incubated at 37 °C overnight. The lowest concentration with no colony growth was determined as the MBC.

MRSA (NCTC 12493) [2] = test: microbe, parasite or virus in culture; type: cell-based
From the text: as §1

S. aureus (NCTC 10788) [3] = test: microbe, parasite or virus in culture; type: cell-based
From the text: as §1

S. aureus (NCTC 10788) [4] = test: Time–killing assay; type: cell-based, Staphylococcus aureus; details: control antibiotic, 3 h incubation
Experimental: (§2) S. aureus (NCTC 10788), E. coli (ATCC 8739), MRSA (NCTC 12493), and P. aeruginosa (ATCC 9027) were used in this assay. Treatments of 2 × MIC, 1 × MIC, and 0.5 × MIC of [Lys^4,19, Leu^20]R2AW(1-22)-NH2 were prepared and mixed with 198 μL of diluted bacteria (5 × 10^5 CFU/mL). At each time point (0, 10, 20, 30, 60, 90, 120, and 180 min), 10 μL of peptide and bacteria mixture was dropped onto the MHA plate. After overnight incubation, the number of bacterial colonies was calculated. The CFU/mL could be calculated using the formula CFU/mL = (Number of colonies × dilution factor)/volume of culture.

MRSA (NCTC 12493) [5] = test: Time–killing assay; type: cell-based, methicillin-resistant Staphylococcus aureus; details: control antibiotic, 3 h incubation
Experimental: as §2

E. coli (ATCC 8739) [6] = type: cell-based; details: ATCC 8739, 18 h
From the text: as §1

[7] = test system: K. pneumoniae (ATCC 43816); type: cell-based; details: ATCC 43816, 18 h
From the text: as §1

[8] = test system: P. aeruginosa (ATCC 9027); type: cell-based; details: ATCC 9027, 18 h
From the text: as §1

S. aureus (NCTC 10788) [9] = type: cell-based, Staphylococcus aureus
Experimental: (§3) As a previous study described in detail, the ability of R2AW and its analogues to inhibit and eradicate the formation of biofilm was investigated. The MBIC is the lowest concentration which inhibits the formation of biofilm. The MBEC is the minimum concentration that eradicates biofilm. Six bacterial strains were used, as described above. Briefly, the bacteria were cultured and then diluted to 5 × 10^5 CFU/mL. In MBIC assays, 1 μL of each concentration of R2AW and its analogues (ranging from 512 × 10^2 μM to 100 μM) was mixed with 99 μL of diluted bacterial suspension in a 96-well plate for 16-20 h at 37 °C. As for MBEC assays, 100 μL of cultured bacteria were seeded in a 96-well plate and incubated on the shaking incubator at 37 °C overnight for biofilm formation. Subsequently, each well was rinsed twice with 100 μL sterile PBS to remove planktonic cells, and then replaced with 100 μL of each concentration (ranging from 512 μM to 1 μM) of peptides. After 24 h incubation, the biofilm was washed twice with 100 μL of PBS and fixed with methanol. Next, the same volume of 0.1% crystal violet solution (Sigma-Aldrich, Gillingham, UK) was added to each well to stain the biofilm. After that, 100 μL of 30% of acetic acid (Sigma-Aldrich, Gillingham, UK) was transferred to each well for dissolution. The solutions were transferred into a new 96-well plate and the absorbances of wells was monitored using a Synergy HT plate reader set to 595 nm.

E. coli (ATCC 8739) [10] = type: cell-based, Escherichia coli
Experimental: as §3

MRSA (NCTC 12493) [11] = type: cell-based, methicillin-resistant Staphylococcus aureus
Experimental: as §3

[12] = test system: K. pneumoniae (ATCC 43816); type: cell-based, Klebsiella pneumoniae
Experimental: as §3

E. faecium (NTCC 12697) [13] = type: cell-based
Experimental: as §3

[14] = test system: P. aeruginosa (ATCC 9027); type: cell-based, Pseudomonas aeruginosa
Experimental: as §3

H838 = type: cell-based, human; details: 24 h
Experimental: (§4) Five human cancer cell lines of non-small-cell lung cancer H838, human prostate carcinoma PC-3, human neuronal glioblastoma U251MG, human breast cancer cell MCF-7, and colorectal carcinoma HCT116 were used to detect the antiproliferative abilities of R2AW and its five analogues. According to the procedures in a previous article, cells (8000 cells/well) were seeded into the 96-well tissue culture plates and incubated at 37 °C with 5% CO2 overnight. The solutions of R2AW and its analogues at concentrations of 10^−4 M to 10^−9 M were prepared in the serum-free medium. Next, cells in each well were treated with 100 μL of each peptide solution for 24 h. Subsequently, 10 μL of 5 mg/mL MTT (3-(4, 5-Dimethylthiazol-2-yl-)-2, 5-Diphehyltetrazolium Bromide) was added to each well followed by 37 °C incubation for 2 h. After that, the liquid in each well was removed and 100 μL of DMSO was added to dissolve the purple formazan. The plate was placed on a shaking incubator for 10 min, and the absorbance was detected at 550 nm using a Synergy HT plate reader (Biotech, Minneapolis, MN, USA).

HCT116 = type: cell-based, human; details: 24 h
Experimental: as §4

MCF-7 = type: cell-based, human; details: 24 h
Experimental: as §4

PC-3 = type: cell-based, human; details: 24 h
Experimental: as §4

U251MG = type: cell-based, human; details: 24 h
Experimental: as §4

Haemolysis assay = type: cell-based, horse
Experimental: The haemolytic activity of R2AW and its five designed analogues on mammalian erythrocytes was evaluated using 2% defibrinated horse blood (TCS Biosciences Ltd., Buckingham, UK) as per a previous report. Two mL of fresh horse blood was transferred into a 50 mL tube and then washed with sterilised PBS. The supernatant was removed after centrifuging (930× g, 5 min). The centrifugation procedure was repeated until the supernatant was clear. After washing, the red blood cell pellet was diluted with PBS to achieve a 4% (v/v) erythrocyte suspension. The concentrations of R2AW and its designed derivatives were prepared from 512 μM to 2 μM by two-fold dilution in sterilised PBS. One hundred µL of red blood cell suspension was added into a 1.5 mL tube treated with the same volume of each concentration of peptide and incubated at 37 °C for 2 h. The red blood cell suspensions treated with 0.2% Triton X-100 and with PBS were regarded as positive control and negative control. After centrifugation at 930× g for 10 min, 100 μL of suspension was transferred to a 96-well plate, and the absorbance was obtained by use of a Synergy HT plate reader. The degree of haemolysis could be calculated using the following formula: Haemolysis = (absorbance (experimental groups) − absorbance (negative control))/(absorbance (positive control) − absorbance (negative control)) × 100%.

[15] = Staphylococcus aureus, NCTC10788

Row | SMILES | MBC (E. faecium (NTCC 12697) [1]; NTCC 12697, 18 h) [mg/L] | MBC (MRSA (NCTC 12493) [2]; MRSA (NCTC 12493)) [mg/L] | MIC (MRSA (NCTC 12493) [2]; MRSA (NCTC 12493)) [mg/L] | MBC (S. aureus (NCTC 10788) [3]; NCTC 10788, 18 h) [mg/L] | MIC (S. aureus (NCTC 10788) [3]; NCTC 10788, 18 h) | MBC (E. coli (ATCC 8739) [6]) [µg/mL] | MIC (E. coli (ATCC 8739) [6]) | MBC [7] [µg/mL] | MIC [7] [µg/mL] | MBC [8] [µg/mL] | MIC [8] [µg/mL] | MBEC (S. aureus (NCTC 10788) [9]) [µM] | MBIC (S. aureus (NCTC 10788) [9]) [µM] | MBEC (E. coli (ATCC 8739) [10]) [µM] | MBIC (E. coli (ATCC 8739) [10]) [µM] | MBEC [12] [µM] | MBIC [12] [µM] | MBEC (E. faecium (NTCC 12697) [13]) [µM] | MBIC (E. faecium (NTCC 12697) [13]) [µM] | MBEC [14] [µM] | other results
1 | CN[C@H](CC(C)C)C(=O)N[C@H]1C(=O)N[C@@H](CC(N)=O)C(=O)N[C@H]2C(=O)N[C@H]3C(=O)N[C@H](C(=O)N[C@H](C(=O)O)c4cc(O)cc(O)c4-c4cc3ccc4O)[C@H](O)c3ccc(c(Cl)c3)Oc3cc2cc(c3O[C@@H]2O[C@H](CO)[C@@H](O)[C@H](O)[C@H]2O[C@H]2C[C@](C)(N)[C@H](O)[C@H](C)O2)Oc2ccc(cc2Cl)[C@H]1O [Vancomycin, reference compound] |  |  |  |  |  |  |  |  |  |  |  |  |  |  |  |  |  |  |  |  | MBC (E. faecium (NTCC 12697) [1]; Enterococcus faecium): > 92.7 µg/mL and > 64 µM; MIC (E. faecium (NTCC 12697) [1]; Enterococcus faecium): 0.7 µg/mL and 0.5 µM; MBC (MRSA (NCTC 12493) [2]; Staphylococcus aureus): 0.7 µg/mL and 0.5 µM; MIC (MRSA (NCTC 12493) [2]; Staphylococcus aureus): 0.7 µg/mL and 0.5 µM; MBC (S. aureus (NCTC 10788) [3]; [15]): 0.7 µg/mL and 0.5 µM; MIC (S. aureus (NCTC 10788) [3]; [15]): 0.7 µg/mL and 0.5 µM; killing effect in time–killing curve (S. aureus (NCTC 10788) [4]): could only inhibit the growth of bacteria; killing effect in time–killing curve (MRSA (NCTC 12493) [5]): could only inhibit the growth of bacteria
2 | CC[C@H](C)[C@H](NC(=O)[C@H](CCCCN)NC(=O)[C@H](CO)NC(=O)[C@H](CCCCN)NC(=O)[C@H](CC(C)C)NC(=O)[C@H](CCCCN)NC(=O)[C@H](CC(=O)O)NC(=O)[C@H](CC(C)C)NC(=O)[C@H](CC(C)C)NC(=O)[C@@H](NC(=O)[C@H](C)NC(=O)[C@H](C)NC(=O)[C@@H](NC(=O)[C@H](CC(N)=O)NC(=O)[C@H](CCCCN)NC(=O)[C@H](C)NC(=O)[C@@H](NC(=O)[C@H](CC(N)=O)NC(=O)[C@H](CCCCN)NC(=O)[C@H](C)NC(=O)[C@@H](NC(=O)[C@H](CC(=O)O)NC(=O)[C@H](CCSC)NC(=O)[C@H](Cc1ccccc1)NC(=O)CN)[C@@H](C)O)C(C)C)C(C)C)[C@@H](C)O)C(=O)N[C@H](C(=O)NCC(=O)NCC(=O)N[C@@H](CO)C(=O)O)[C@@H](C)O [[Ser^23,29]R2AW] (H-GFMDTAKNVAKNVAATLLDKLKSKITGGS-OH) | 1526 | 1526 | 763 | 191 | 64 µM | 381 | 64 µM | 1526 | 763 | > 1526 | 1526 | > 512 | 128 | 512 | 128 | >512 | >512 | >512 | >512 | >512 | MBEC (MRSA (NCTC 12493) [11]; MRSA (NCTC 12493)): > 512 µM; MBIC (MRSA (NCTC 12493) [11]; MRSA (NCTC 12493)): 256 µM; MBIC [14]: >512 µM; IC50 (H838): 19.3 µM; IC50 (HCT116): 31.6 µM; IC50 (MCF-7): 62.7 µM; IC50 (PC-3): 17.4 µM; IC50 (U251MG): 37.3 µM; hemolysis at 2 h (Haemolysis assay; horse erythrocytes (washed red blood cell suspension), horse erythrocytes, up to 256 μM): ~10%
3 | CSCC[C@H](NC(=O)[C@H](Cc1ccccc1)NC(=O)CN)C(=O)N[C@@H](CCCCN)C(=O)N[C@H](C(=O)N[C@@H](Cc1c[nH]c2ccccc12)C(=O)N[C@@H](CCCCN)C(=O)N[C@@H](CC(N)=O)C(=O)N[C@H](C(=O)N[C@@H](Cc1c[nH]c2ccccc12)C(=O)N[C@@H](CCCCN)C(=O)N[C@@H](CC(N)=O)C(=O)N[C@H](C(=O)N[C@@H](C)C(=O)N[C@@H](C)C(=O)N[C@H](C(=O)N[C@@H](CC(C)C)C(=O)N[C@@H](CC(C)C)C(=O)N[C@@H](CCCCN)C(=O)N[C@@H](CC(C)C)C(=O)N[C@@H](CC(C)C)C(=O)N[C@@H](CCCCN)C(N)=O)[C@@H](C)O)C(C)C)C(C)C)[C@@H](C)O [[Trp^6,10]R2AW(1-22)-NH2] (H-GFMKTWKNVWKNVAATLLKLLK-NH2; N-terminus assumed) | 41.4 | 20.7 | 10.4 | 20.7 | 10.4 mg/L | 41.4 | 20.7 µg/mL | 82.8 | 41.4 | 166 | 82.8 | 512 | 8 | 256 | 4 | 256 | 16 | > 512 | 8 | 512 | MIC (E. faecium (NTCC 12697) [1]; NTCC 12697, 18 h): 20.7 mg/L; MBEC (MRSA (NCTC 12493) [11]; NCTC 12493): > 512 µM; MBIC (MRSA (NCTC 12493) [11]; NCTC 12493): 8 µM; MBIC [14]: 32 µM; IC50 (H838): 3.41 µM; IC50 (HCT116): 5.38 µM; IC50 (MCF-7): 5.33 µM; IC50 (PC-3): 1.73 µM; IC50 (U251MG): 3.35 µM; hemolysis at 2 h, 2 µM (Haemolysis assay; horse): ~20%
